Reference: article PMC11489552, “Specific targeting of cancer vaccines to antigen-presenting cells via an endogenous TLR2/6 ligand derived from cysteinyl-tRNA synthetase 1” (Molecular Therapy, 2024)
Where two headings read alike, the source gives them in different places.

Key:
BMDCs [1] = type: cell-based, C57BL/6 mice
BMDCs [2] = assay: In vitro antigen presentation ([…]/H-2K^b) in BMDCs; type: cell-based, C57BL/6 mice
Description: To examine TLR2-specific antigen uptake and presentation, BMDCs were isolated from TLR2^WT and TLR2^–/– mice as described above. BMDC cells (3 × 10^5) were seeded in the 24-well plate. […] C8138), 20 or 40 μM dynasore (Sigma, no. 324410), 1 or 2 μM cathepsin S inhibitor (MCE, no. LY 3000328), 1 or 2 μM methyl-β-cyclodextrin (Sigma-Aldrich, no. C4555), or 1 or 2 mM amiloride (Merck, no. A7410) 1 mg/mL for 30 min. After pretreatment, labeled or native samples were treated in the wells, followed by antigen uptake or presentation analyzed by flow cytometry as described above.

Raw 264.7 cells = assay: In vitro cytotoxicity, CCK-8; conditions: different concentrations, CCK-8 18 h after treatment
Description: (§1) The in vitro cytotoxicity test was assessed using Cell Counting Kit (CCK)-8 assays (Dojindo, no. CK04). DC2.4, Raw 264.7, and TC-1 cells were seeded onto 96-well plates for 24 h before treating them with different concentrations of EUCV and doxorubicin. A 10% CCK-8 solution was added to each well 18 h after treatment, and the plates were incubated at 37°C in a 5% CO2 atmosphere for 30 min to 4 h. The absorbance at 450 nm was detected using an instrument. Relative cell viability was calculated as a percentage of untreated control cells. To assess in vivo toxicity, E7 (100.6 nmol) and EUCV at 25 mpk (25.2 nmol) and 100 mpk (100.6 nmol) were subcutaneously injected into the backs of C57BL/6 mice. […] Mouse body weight was measured immediately after administration and at 24 h intervals, and at 48 h the mice were euthanized to measure spleen size to evaluate splenomegaly. After vaccine administration, blood was drawn at 2, 8, and 24 h, and cytokines IL-6 (BD, no. 555240) and IL-12p40 (BD, no. 555165) in serum were quantified using ELISA.

DC2.4 cells = assay: In vitro cytotoxicity, CCK-8; conditions: different concentrations, CCK-8 18 h after treatment
Description: as §1

TC-1 cells = assay: In vitro cytotoxicity, CCK-8; type: cell-based, mouse; conditions: different concentrations, CCK-8 18 h after treatment
Description: as §1

[3] = Biodistribution to lymph nodes by IVIS imaging; type: in vivo, C57BL/6 mice; conditions: subcutaneous, 5 nmol FAM-labeled, IVIS over time, n = 3 per group
Description: Seven-week-old C57BL/6 mice were subcutaneously injected with 5 nmol FAM-E-, FAM-E+U-, or FAM-labeled EUCV, respectively. After 0.5, 2, 6, or 24 h, organs were collected and washed with PBS to remove any remaining blood. For biodistribution analysis, images were obtained using an In Vivo Imaging System (IVIS) Lumina II imaging systems (PerkinElmer; excitation 494 nm, emission 518 nm) and analyzed by Living Image software.

[4] = test system: spleen cells re-stimulated with epitope peptides; assay: SLP screening, IFN-γ ELISpot; type: in vivo, C57BL/6 mice; conditions: 20 μg SLP with U (100 μg) s.c. twice, spleen cells 7 days after final immunization
Description: Seven-week-old C57BL/6 mice were immunized subcutaneously in the right back twice at 1-week intervals using SLPs (HPV16 E6_23–42, E6_43–62, E6_123–143, E75–25, E7_43–62, and E7_76–95; 20 μg per SLP) with U (100 μg). After 7 days at final immunization, cells were isolated from the spleen and seeded in the ELISpot well in triplicates (5 × 10^5 cells per well) with 10 μg/mL of re-stimulatory 8–9 mer epitope peptides (HPV16 E6_29–37, E6_49–57, E6_129–138, E7_11–19, E7_49–57, and E7_82–90), respectively. Antigen-specific immune responses were detected by AID EliSpot Reader (AID, no. ELR08).

[5] = Pharmacokinetics: plasma level of FAM-labeled antigen after injection; type: in vivo; conditions: subcutaneous, 5 nmol 5-FAM-labeled, C57BL/6 mice, n = 3 per group, plasma diluted 1:20 in PBS, fluorescence Ex/Em 494/518 nm, followed for 24 h
Description: Seven-week-old mice were intravenously or subcutaneously injected with 5 nmol labeled SLP or protein. At the indicated time point, blood was collected using ophthalmic bleeding into heparin-coated micro hematocrit capillary tubes (Fisherbrand, no. 22-362574). After being transferred blood into a microtube, plasma was isolated from blood by centrifugation at 4°C for 10 min at 1,000 × g to eliminate the cells, and then centrifugation at 4°C for 15 min 2,000 × g for removed platelets. The plasma was diluted 1:20 into PBS and measured on Infinite 200 PRO (TECAN) against a standard curve of analytes diluted into PBS (Ex/Em: 494/518 nm). All plasma was normalized to the maximum fluorescence detected in the individual injection sample and plotted as percent injection dose (% ID) versus time. The half-life was calculated by fitting the intravenous plasma curve using C=C0×e^–kt . The subcutaneous curve was fit to C=[F×ka×C0/VD(ka–k)]×(e^–k×t–e^–ka×t ), where C is the plasma concentration of indicated times, C0 is the initial serum concentration, k is the elimination rate constant, F is the systemic absorbance, ka is the absorption rate constant, VD is the volume of distribution.[72] The curve graphs were represented using nonlinear regression on GraphPad Prism.

TC-1 tumors = assay: TC-1 tumor model, combination with anti-PD-1 blockade; type: in vivo, C57BL/6 mice
Description: TC-1 tumor cells expressing HPV16-E6 and E7 proteins and E.G7-OVA cells expressing chicken OVA were used to generate of mouse tumor model. For the therapeutic cancer vaccine model, 7-week-old C57BL/6 mice were subcutaneously injected on the right flank with TC-1 cells (1 × 10^5 cells per mouse) in 100 μL DPBS. On day 6 when tumors measured 100 mm^3 […], treatment with 5 nmol of E, E+U, and EUCV was initiated as indicated in the schedule. On day 20 mice were sacrificed, and tumor tissues were collected for TILs analysis. For the anti-PD-1 antibody combination model, 5 nmol of E and EUCV was injected subcutaneously, and 200 μg of anti-PD-1 antibody (BioXcell, clone 29F.1A12, no. BE0273) was injected intraperitoneally as indicated in the schedule. On day 20 mice were sacrificed, and tumor tissues were collected for qRT-PCR and immunohistochemistry analysis. Survival was recorded by observing the mice up to 60 days and mice were euthanized when tumor volume reached 1,500 mm^3. For the E.G7-OVA tumor model, 7-week-old C57BL/6 mice were subcutaneously injected on the right flank with E.G7-OVA cells (1 × 10^6 cells per mouse) in 100 μL DPBS. On day 3 when the tumor measured 100 mm^3 […], treatment with 5 nmol of O, O+U, and OUCV was initiated as indicated in the schedule. On day 17 mice were sacrificed, and tumor tissue was collected for TIL analysis. In all experiments, tumors were measured 3 times a week using a caliper and calculated using the formula V(volume:mm^3)=L(length)×W^2(width)×0.52 ,[5] and mice were euthanize when tumor volume reached 1,500 mm^3.

[6] = test system: bone marrow-derived dendritic cells (BMDCs); assay: BMDC stimulation: costimulatory molecules and cytokines; type: cell-based, C57BL/6 mice; conditions: 100 nM, 24 h, ELISA
Description: Bone marrow was harvested from femurs and tibias of C57BL/6 mice. Red blood cells were lysed with Pharm Lyse lysing solution (BD, no. 555899), and the remaining cells were washed using DPBS (HyClone, no. SH30378.02), followed by centrifugation to the collection. Bone marrow cells were resuspended at a concentration of 1 × 10^6 cells/mL in RPMI-1640 medium supplemented with 10% FBS, 1% streptomycin-penicillin, and 20 ng/mL GM-CSF (R&D Systems, no. 415-ML-005). On day 3, add an additional medium of the same supplemented as described above. BMDCs were harvested on day 6 and seeded at 3 × 10^5 cells/mL in 24-well plates for stimulation.
Differentiated THP-1, BMDC (3 × 10^5 cells per well) were seeded, and after 24 h starved with serum-free-medium for 1 h. […] To measure the inflammatory cytokine level, the culture medium was harvested, centrifuged at 500 × g for 10 min at 4°C, and the supernatant was separated. The expression of inflammatory cytokines was measured using hTNF-α (BD, no. 555212), IL-12p70 (BD, no. 555256), IL-12p40 (BD, no. 555165), and IL-6 (BD, no. 555240) ELISA kits according to the manufacturer’s instructions. To investigate the expression of costimulatory molecules on the cell surface, cells were harvested using dissociation buffer (5 mM EDTA in DPBS), washed, and stained with 1 μg/mL antibody, followed by flow cytometry analysis. […]

[7] = In vivo toxicity (body weight, spleen, serum cytokines); parameters: species or system C57BL/6 mice; conditions: s.c.; EUCV 25.2 and 100.6 nmol, Pam2CSK4 100.6 nmol, poly(I:C) 2.5 nmol; serum at 2, 8, 24 h, ELISA
hTLR2/6 = target: T1, hTLR2/6 (Homo sapiens, UniProt O60603+Q9Y2C9); assay: HEK-Blue SEAP assay (NF-κB); type: cell-based; conditions: HEK-Blue hTLR2/6 cells, 24 h
T1 construct: host or cells: HEK-Blue hTLR2/6 (HEK293-derived NF-kB/SEAP reporter cells)
T1 sequence (O60603 21-784): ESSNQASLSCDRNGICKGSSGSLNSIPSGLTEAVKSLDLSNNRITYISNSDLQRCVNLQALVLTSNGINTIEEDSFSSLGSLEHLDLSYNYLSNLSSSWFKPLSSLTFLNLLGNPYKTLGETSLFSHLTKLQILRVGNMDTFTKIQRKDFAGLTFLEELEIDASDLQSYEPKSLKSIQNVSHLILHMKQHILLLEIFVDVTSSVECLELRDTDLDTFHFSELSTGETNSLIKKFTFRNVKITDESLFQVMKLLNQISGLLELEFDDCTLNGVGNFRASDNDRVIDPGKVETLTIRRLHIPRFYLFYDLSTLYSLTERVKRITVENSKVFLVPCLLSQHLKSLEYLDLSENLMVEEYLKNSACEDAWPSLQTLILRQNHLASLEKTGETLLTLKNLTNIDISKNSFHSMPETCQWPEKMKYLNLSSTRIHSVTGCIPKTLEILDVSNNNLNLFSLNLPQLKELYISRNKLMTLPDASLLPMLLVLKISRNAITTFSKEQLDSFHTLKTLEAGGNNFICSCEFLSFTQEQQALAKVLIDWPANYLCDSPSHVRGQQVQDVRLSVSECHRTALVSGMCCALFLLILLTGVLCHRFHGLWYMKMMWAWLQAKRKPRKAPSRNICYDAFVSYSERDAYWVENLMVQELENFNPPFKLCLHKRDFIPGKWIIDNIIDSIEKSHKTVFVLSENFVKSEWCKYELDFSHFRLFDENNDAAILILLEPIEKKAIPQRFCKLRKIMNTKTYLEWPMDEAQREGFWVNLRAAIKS
T1 sequence (Q9Y2C9 32-796): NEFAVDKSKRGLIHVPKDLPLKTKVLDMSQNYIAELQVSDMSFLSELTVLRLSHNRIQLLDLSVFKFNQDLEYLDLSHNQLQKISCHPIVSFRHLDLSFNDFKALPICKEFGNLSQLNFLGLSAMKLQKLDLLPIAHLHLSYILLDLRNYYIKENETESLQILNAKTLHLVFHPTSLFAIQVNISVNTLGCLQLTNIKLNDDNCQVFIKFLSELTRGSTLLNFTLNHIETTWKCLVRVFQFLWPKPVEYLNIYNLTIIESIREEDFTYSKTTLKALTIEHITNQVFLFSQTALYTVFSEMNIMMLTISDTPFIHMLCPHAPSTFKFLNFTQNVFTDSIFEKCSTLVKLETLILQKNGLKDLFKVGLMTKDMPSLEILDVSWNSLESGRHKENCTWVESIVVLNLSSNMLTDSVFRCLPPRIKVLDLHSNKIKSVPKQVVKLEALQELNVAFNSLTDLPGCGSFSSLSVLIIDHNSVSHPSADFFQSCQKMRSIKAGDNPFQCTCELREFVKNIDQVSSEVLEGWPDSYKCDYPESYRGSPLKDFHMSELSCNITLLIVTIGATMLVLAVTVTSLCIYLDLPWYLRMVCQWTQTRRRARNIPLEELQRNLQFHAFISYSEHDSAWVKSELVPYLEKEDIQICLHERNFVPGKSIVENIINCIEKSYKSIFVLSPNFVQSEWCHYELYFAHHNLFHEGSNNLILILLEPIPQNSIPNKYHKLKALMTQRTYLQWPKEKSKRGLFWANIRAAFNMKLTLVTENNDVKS
Description: HEK-Blue hTLR2/6 (Invivogen, no. hkb-htlr26), hTLR2/1 (Invivogen, no. hkb-htlr21), and hTLR4 (Invivogen, no. hkb-htlr4) cells were cultured in DMEM (HyClone, no. SH30243.01) supplemented with 10% heat-inactivated FBS, 1% penicillin-streptomycin, and 100 μg/mL normocin (Invivogen, no. ant-nr-1), with added HEK-Blue Selection (Invivogen, no. hb-sel) added in medium after the cells were passaged twice. For the SEAP assay, HEK-Blue cells were harvested and resuspended to 2.8 × 10^5 cells/mL in a culture medium. […] The plates were then incubated for 24 h at 37°C, and 5% CO2 and the supernatant was collected. After removing the remaining cells by centrifugation, 20 μL of supernatant was transferred into a 96-well plate with 180 μL QUNATI-Blue solution (Invivogen, no. rep-pbs). All plates were incubated at 37°C, 5% CO2 for 3–4 h, and absorbance was measured at 620 nm with a microplate reader (TECAN, no. 30087502).

[8] = BMDCs pretreated 30 min with inhibitor at various concentrations, then FAM-labeled sample 100 nM 24 h, flow cytometry
[9] = BMDCs pretreated 30 min with inhibitor, then 100 nM O, O+U or OUCV, flow cytometry

Question: Which “effect of endocytosis/processing inhibitor on E+U and EUCV uptake” value (BMDCs [1]; [8]) does the source give for `CN(C)CCCN1c2ccccc2Sc2ccc(Cl)cc21` [CM, chlorpromazine] here?
Answer: Its value is “reduced E+U and EUCV uptake”.

Question: And the “effect of inhibitor on antigen presentation (SIINFEKL/H-2K^b)” value (“effect of inhibitor” below) (BMDCs [2]; [9])?
Answer: The value was “reduced”.

Question: Which “effect of endocytosis/processing inhibitor on E+U and EUCV uptake” value (BMDCs [1]) does the source give for `CNC(=O)O[C@H]1COc2ccc(N3CCN(C4COC4)CC3)cc2[C@@H]1NC(=O)c1ccc(F)cc1` [CS] here?
Answer: Its value is “no change”.

Question: And the “effect of inhibitor” value (BMDCs [2])?
Answer: Its value is “reduction in antigen presentation”.

Question: For `N=C(N)NC(=O)c1nc(Cl)c(N)nc1N` [amiloride], which “effect of endocytosis/processing inhibitor on E+U and EUCV uptake” value (BMDCs [1]; [8]) is on record?
Answer: Its value is “no change”.

Question: Which results are given for `COc1cccc2c1C(=O)c1c(O)c3c(c(O)c1C2=O)C[C@@](O)(C(=O)CO)C[C@@H]3O[C@H]1C[C@H](N)[C@H](O)[C@H](C)O1` [doxorubicin]?
Answer: cytotoxicity (relative cell viability) (Raw 264.7 cells): concentration-dependent toxicity; cytotoxicity (relative cell viability) (DC2.4 cells): concentration-dependent toxicity; cytotoxicity (relative cell viability) (TC-1 cells): concentration-dependent toxicity

Question: With `O=C(N/N=C/c1ccc(O)c(O)c1)c1cc2ccccc2cc1O` [dynasore] as the molecule, how does the “effect of endocytosis/processing inhibitor on E+U and EUCV uptake” value (BMDCs [1]; [8]) read?
Answer: Its value is “reduced E+U and EUCV uptake”.

Question: What about the “effect of inhibitor” value (BMDCs [2]; [9]) of the same molecule?
Answer: Its value is “reduced”.

Question: With “GQAEPDRAHYNIVTFCCKCD [HPV-16 E7_43–62 synthetic long peptide antigen]” as the molecule, how does the “distribution among inguinal, axillary and iliac lymph nodes” value [3] read?
Answer: Its value is “diffused distribution to axillary and iliac LNs beyond inguinal LNs near the injection site”.

Question: And the “IFN-γ activity among E6- and E7-derived SLPs” value [4]?
Answer: Its value is “highest interferon gamma (IFN-γ) activity”.

Question: And the “time at which the blood concentration peaked” value [5]?
Answer: Its value is 0.25 h.

Question: What about the “mortality by day 26” value (TC-1 tumors; TC-1 tumor-bearing mice, 5 nmol s.c. days 6 and 13, anti-PD-1 200 μg i.p. days 6, 9, 12, 15, n = 8) of the same molecule?
Answer: Its value is 100%.

Question: And the “Complete regression (mice / group)” value (TC-1 tumors; TC-1 tumor-bearing mice, 60 days, n = 8 per group, printed in Figure 5C)?
Answer: The value was 0/8.

Question: What about the tumor growth (TC-1 tumors; TC-1 tumors, 5 nmol s.c. days 6 and 13, with or without anti-PD-1 blockade, n = 8) of the same molecule?
Answer: Its tumor growth is “Neither E alone nor the combination of E+αPD-1 blockade significantly suppressed tumor growth”.

Question: And the “secretion of IL-12p70 and IL-6” value [6]?
Answer: Its value is “absent”.

Question: What does the source list for Pam2CSK4?
Answer: bloodstream cytokines (IL-6, IL-12p40), systemic toxicity [7]: significant inflammatory cytokine expression; nuclear factor κB induction (SEAP, OD620) (hTLR2/6): induced nuclear factor κB in TLR2/6-expressing cells

Question: With methyl-β-cyclodextrin [Mbcd] as the molecule, how does the “effect of endocytosis/processing inhibitor on E+U and EUCV uptake” value (BMDCs [1]; [8]) read?
Answer: The value was “no change”.

Question: For poly(I:C), which “bloodstream cytokines (IL-6, IL-12p40), systemic toxicity” value [7] is on record?
Answer: Its value is “significant inflammatory cytokine expression”.
